Measurements published in patent US20220062240A1, “METHODS OF TREATING CANCER USING A CLK INHIBITOR” (BioSplice Therapeutics, Inc., priority 2018, published 2022).
Where two headings read alike, the source gives them in different places.

Assays:
[1] = test system: ovarian cancer (4 cell lines); test: CellTiter-Glo Viability Assay, ovarian cancer; assay type: cell-based; conditions: Homo sapiens, inhibition of cancer cell proliferation
[2] = test system: BT-549; test: CellTiter-Glo Viability Assay, breast cancer; assay type: cell-based; conditions: Homo sapiens, 96 h; BT-549, breast cancer, four days; read-out: EC50
[3] = test system: HCC1599; test: CellTiter-Glo Viability Assay, breast cancer; assay type: cell-based; conditions: Homo sapiens, 96 h; HCC1599, breast cancer, four days; read-out: EC50
[4] = test system: DU4475; test: CellTiter-Glo Viability Assay, breast cancer; assay type: cell-based; conditions: Homo sapiens, DU-4475, 96 h; DU4475, breast cancer, four days; read-out: EC50
[5] = test system: MDA-MB-231-Luc; test: CellTiter-Glo Viability Assay, breast cancer; assay type: cell-based; conditions: Homo sapiens, 96 h; MDA-MB-231-Luc, breast cancer, four days; read-out: EC50
[6] = test system: MCF7; test: CellTiter-Glo Viability Assay, breast cancer; assay type: cell-based; conditions: Homo sapiens, 96 h; MCF7, breast cancer, four days; read-out: EC50
[7] = test system: T47D; test: CellTiter-Glo Viability Assay, breast cancer; assay type: cell-based; conditions: Homo sapiens, 96 h, breast cancer, four days, read-out: EC50
[8] = test system: CAMA1; test: CellTiter-Glo Viability Assay, breast cancer; assay type: cell-based; conditions: Homo sapiens, CAMA-1, 96 h; CAMA1, breast cancer, four days; read-out: EC50
[9] = test system: ZR-75-1; test: CellTiter-Glo Viability Assay, breast cancer; assay type: cell-based; conditions: Homo sapiens, 96 h; ZR-75-1, breast cancer, four days; read-out: EC50
[10] = test system: all 50 cell lines; test: CellTiter-Glo Viability Assay, average across all cell lines; assay type: cell-based; conditions: Homo sapiens; across all 50 cell lines; read-out: average EC50 for inhibition of cancer cell proliferation
Method in brief: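 4-day proliferation, 37° C/5% CO2; 300-3,000 cells/well; compound in duplicate vs DMSO controls. Panel: breast, colorectal, heme/lymphoid, liver, lung, ovarian, pancreatic, prostate lines. Read-out: CellTiter-Glo ATP luminescence, EC50 from dose-response.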

[11] = test system: haematopoietic & lymphoid tumors (13 cell lines); test: CellTiter-Glo Viability Assay, haematopoietic & lymphoid tumors; assay type: cell-based; conditions: Homo sapiens, inhibition of cancer cell proliferation
[12] = biological target: T1, CLK2 (Homo sapiens, UniProt P49760); test: CLK2 kinase activity assay (Z-lyte, Ser/Thr 6 peptide); assay type: biochemical; conditions: recombinant CLK2 kinase, ATP 60 μM; read-out: EC50
T1 construct: purchased Thermo Fisher (Life Technologies), Z'-LYTE Kinase Assay Kits
Protocol: All reactions were performed in duplicate.

[13] = test system: lung cancer (4 cell lines); test: CellTiter-Glo Viability Assay, lung cancer; assay type: cell-based; conditions: Homo sapiens, inhibition of cancer cell proliferation
[14] = test system: liver cancer (3 cell lines); test: CellTiter-Glo Viability Assay, liver cancer; assay type: cell-based; conditions: Homo sapiens, inhibition of cancer cell proliferation
[15] = test system: prostate cancer (5 cell lines); test: CellTiter-Glo Viability Assay, prostate cancer; assay type: cell-based; conditions: Homo sapiens
[16] = test system: pancreatic cancer (8 cell lines); test: CellTiter-Glo Viability Assay, pancreatic cancer; assay type: cell-based; conditions: Homo sapiens, inhibition of cancer cell proliferation
[17] = test system: colorectal cancer (6 cell lines); test: CellTiter-Glo Viability Assay, colorectal cancer; assay type: cell-based; conditions: Homo sapiens, inhibition of cancer cell proliferation
[18] = biological target: CLK3 (Homo sapiens, UniProt P49761); test: CLK3 kinase activity assay (Z-lyte, Ser/Thr 18 peptide)
Protocol: Each compound was dissolved in DMSO as a 10 mM stock and used to prepare compound source plates.
This is a non-radioactive assay using fluorescence resonance energy transfer (FRET) between coumarin and fluorescein to detect kinase activity which is represented as a ratio of coumarin emission/fluorescein emission.
All reactions were performed in duplicate. Unphosphorylated (“0% Control”) and phosphorylated (“100% control”) forms of Ser/Thr 18 served as control reactions. Additionally, an 11-point dose-response curve of Staurosporine (1 uM top) was run to serve as a positive compound control.
After incubation, Development Reagent A was diluted in Development Buffer then added to the reaction and allowed to further incubate for one hour at room temperature.
Dose-response curves were generated and inhibitory concentration (IC50) values were calculated using non-linear regression curve fit in the Dotmatics' Studies Software (Bishops Stortford, UK).
Compounds were acoustically transferred on 1536-well plates (Echo 550, LabCyte) instrument. Kinase, peptide, and ATP reagents from the Z′-LYTE Kinase Assay Kits (Thermo Fisher) were dispensed onto the compound plates using an EL406 liquid dispenser (BioTek). Plates were incubated in the dark at room temperature for 1 hr. Development reagent was added to the plates and then incubated in the dark at room temperature for 1 hr. Fluorescence signal form the plate was then read using an EnVision Multilabel Plate Reader (Perkin Elmer).

[19] = PA-1, PA1 cell line, read-out: Ovarian cancer, EC50 (μM) PA1
[20] = TOV112D, TOV-112D cell line, read-out: Ovarian cancer, EC50 (μM) TOV-112D
[21] = OV-90 cell line, read-out: Ovarian cancer, EC50 (μM) OV-90
[22] = OVCAR-3 cell line, read-out: Ovarian cancer, EC50 (μM) OVCAR-3
[23] = DND41, DND-41 cell line, read-out: Haematopoietic & Lymphoid tumors, EC50 (μM) DND-41
[24] = MV4-11, MV-4-11 cell line, read-out: Haematopoietic & Lymphoid tumors, EC50 (μM) MV-4-11
[25] = Rec1, REC-1 cell line, read-out: Haematopoietic & Lymphoid tumors, EC50 (μM) REC-1
[26] = SU-DHL-4, SUDHL4 cell line, read-out: Haematopoietic & Lymphoid tumors, EC50 (μM) SUDHL4
[27] = HL-60 cell line, read-out: Haematopoietic & Lymphoid tumors, EC50 (μM) HL-60
[28] = JM1 cell line, read-out: Haematopoietic & Lymphoid tumors, EC50 (μM) JM1
[29] = JURKAT, Clone E6-1 cell line, read-out: Haematopoietic & Lymphoid tumors, EC50 (μM) JURKAT, Clone E6-1
[30] = JeKo-1 cell line, read-out: Haematopoietic & Lymphoid tumors, EC50 (μM) JeKo-1
[31] = KASUMI-1 cell line, read-out: Haematopoietic & Lymphoid tumors, EC50 (μM) KASUMI-1
[32] = Loucy cell line, read-out: Haematopoietic & Lymphoid tumors, EC50 (μM) Loucy
[33] = MOLT-4 cell line, read-out: Haematopoietic & Lymphoid tumors, EC50 (μM) MOLT-4
[34] = TF-1 cell line, read-out: Haematopoietic & Lymphoid tumors, EC50 (μM) TF-1
[35] = TOLEDO cell line, read-out: Haematopoietic & Lymphoid tumors, EC50 (μM) TOLEDO
[36] = A-427, A427 cell line, read-out: Lung cancer, EC50 (μM) A427
[37] = HCC78, HCC-78 cell line, read-out: Lung cancer, EC50 (μM) HCC-78
[38] = NCI-H460 cell line, read-out: Lung cancer, EC50 (μM) NCI-H460
[39] = NCI-H522 cell line, read-out: Lung cancer, EC50 (μM) NCI-H522
[40] = SNU-398, SNU398 cell line, read-out: Liver cancer, EC50 SNU398
[41] = HEPG2 cell line, read-out: Liver cancer, EC50 HEPG2
[42] = PLC/PRF/5 cell line, read-out: Liver cancer, EC50 PLC/PRF/5
[43] = DU-145, read-out: Prostate cancer EC50 Du-145
[44] = PC-3, PC3 cell line, inhibition of cancer cell proliferation, read-out: Prostate cancer EC50 PC3
[45] = 22Rv1 cell line, inhibition of cancer cell proliferation, read-out: Prostate cancer EC50 22Rv1
[46] = LNCap clone FGC cell line, inhibition of cancer cell proliferation, read-out: Prostate cancer EC50 LNCap clone FGC
[47] = VCaP (Sigma) cell line, inhibition of cancer cell proliferation, read-out: Prostate cancer EC50 VCaP (Sigma)
[48] = BXPC-3, BxPC3 cell line, read-out: Pancreatic cancer, EC50 BxPC3
[49] = CAPAN-1, Capan1 cell line, read-out: Pancreatic cancer, EC50 Capan1
[50] = Capan-2, Capan2 cell line, read-out: Pancreatic cancer, EC50 Capan2
[51] = MIA PaCa-2 cell line, read-out: Pancreatic cancer, EC50 MIA PaCa-2
[52] = PANC 05.04 cell line, read-out: Pancreatic cancer, EC50 PANC 05.04
[53] = PANC-1 cell line, read-out: Pancreatic cancer, EC50 PANC-1
[54] = UPAFII cell line, read-out: Pancreatic cancer, EC50 UPAFII
[55] = HCT-116, HCT116 cell line, read-out: Colorectal cancer, EC50 (μM) HCT116
[56] = HT-29, HT29 cell line, read-out: Colorectal cancer, EC50 (μM) HT29
[57] = SW-620, SW620 cell line, read-out: Colorectal cancer, EC50 (μM) SW620
[58] = DLD-1 cell line, read-out: Colorectal cancer, EC50 (μM) DLD-1
[59] = SW48 cell line, read-out: Colorectal cancer, EC50 (μM) SW48
[60] = SW480 cell line, read-out: Colorectal cancer, EC50 (μM) SW480

Chain of CLK3 (P49761 whole entry): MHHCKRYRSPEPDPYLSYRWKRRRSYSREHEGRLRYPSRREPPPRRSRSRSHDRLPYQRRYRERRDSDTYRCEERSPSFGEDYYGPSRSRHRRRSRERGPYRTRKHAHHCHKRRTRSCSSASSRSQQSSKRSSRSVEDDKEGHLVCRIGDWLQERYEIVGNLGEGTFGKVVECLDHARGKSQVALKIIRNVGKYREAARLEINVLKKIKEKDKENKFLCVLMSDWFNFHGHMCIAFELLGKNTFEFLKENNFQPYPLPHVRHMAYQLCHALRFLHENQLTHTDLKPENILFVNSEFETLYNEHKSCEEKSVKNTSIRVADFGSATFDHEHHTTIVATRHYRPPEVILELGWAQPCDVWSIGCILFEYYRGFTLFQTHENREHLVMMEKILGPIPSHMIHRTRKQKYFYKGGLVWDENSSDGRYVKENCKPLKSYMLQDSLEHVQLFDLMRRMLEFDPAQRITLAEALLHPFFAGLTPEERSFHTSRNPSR
T1 sequence (P49760 whole entry): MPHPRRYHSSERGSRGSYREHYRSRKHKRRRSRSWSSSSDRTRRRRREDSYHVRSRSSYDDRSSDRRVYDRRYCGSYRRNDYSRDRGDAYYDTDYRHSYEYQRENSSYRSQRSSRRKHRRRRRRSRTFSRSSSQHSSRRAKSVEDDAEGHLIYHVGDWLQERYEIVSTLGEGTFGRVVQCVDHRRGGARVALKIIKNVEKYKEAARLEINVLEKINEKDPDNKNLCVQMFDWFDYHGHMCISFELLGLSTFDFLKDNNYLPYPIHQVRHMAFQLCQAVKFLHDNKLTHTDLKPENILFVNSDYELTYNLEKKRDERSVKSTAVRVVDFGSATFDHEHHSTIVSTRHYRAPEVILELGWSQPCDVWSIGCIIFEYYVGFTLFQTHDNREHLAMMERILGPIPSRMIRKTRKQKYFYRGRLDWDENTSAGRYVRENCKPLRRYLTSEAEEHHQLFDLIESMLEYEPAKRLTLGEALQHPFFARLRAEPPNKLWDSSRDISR

## CN1CCC(Sc2ccc3cnc(NC(=O)c4ccnc(SC5CCN(C)CC5)c4)cc3c2)CC1 [Compound 88]
[1]; [19]
  EC50: 1.05 µM
[1]; [20]
  EC50: 0.873 µM
[1]; [21]
  EC50: 1.88 µM
[1]; [22]
  EC50: 0.569 µM
[2]
  EC50: 1030 nM
[3]
  EC50: 2300 nM
[4]
  EC50: 540 nM
[5]
  EC50: 1220 nM
[6]
  EC50: 1900 nM
[7]
  EC50: 7190 nM
[8]
  EC50: 1410 nM
[9]
  EC50: 1440 nM
[10]
  EC50: 1150 nM
[11]; [23]
  EC50: 1 µM
[11]; [24]
  EC50: 0.204 µM
[11]; [25]
  EC50: 0.192 µM
[11]; [26]
  EC50: 0.527 µM
[11]; [27]
  EC50: 1.28 µM
[11]; [28]
  EC50: 0.158 µM
[11]; [29]
  EC50: 1.19 µM
[11]; [30]
  EC50: 0.32 µM
[11]; [31]
  EC50: 0.517 µM
[11]; [32]
  EC50: 0.614 µM
[11]; [33]
  EC50: 1.45 µM
[11]; [34]
  EC50: 2.67 µM
[11]; [35]
  EC50: 0.274 µM
[12]
  EC50: 4.5 nM
[13]; [36]
  EC50: 0.841 µM
[13]; [37]
  EC50: 1.29 µM
[13]; [38]
  EC50: 0.697 µM
[13]; [39]
  EC50: 0.33 µM
[14]; [40]
  EC50: 167 nM
[14]; [41]
  EC50: 6400 nM
[14]; [42]
  EC50: 1560 nM
[15]; [43]
  EC50: 772 nM
[15]; [44]
  EC50: 907 nM
[15]; [45]
  EC50: 532 nM
[15]; [46]
  EC50: 1190 nM
[15]; [47]
  EC50: 728 nM
[16]; [48]
  EC50: 1230 nM
[16]; [49]
  EC50: 1030 nM
[16]; [50]
  EC50: 937 nM
[16]; [51]
  EC50: 296 nM
[16]; [52]
  EC50: 2110 nM
[16]; [53]
  EC50: 808 nM
[16]; [54]
  EC50: 547 nM
[17]; [55]
  EC50: 0.497 µM
[17]; [56]
  EC50: 0.574 µM
[17]; [57]
  EC50: 0.465 µM
[17]; [58]
  EC50: 0.677 µM
[17]; [59]
  EC50: 0.153 µM
[17]; [60]
  EC50: 0.796 µM
[18]
  EC50: 21.4 nM

## CN(C)C1CCN(c2cc(C(=O)Nc3ncc4ccc(-c5cn(C)nn5)cc4n3)ccn2)CC1 [Compound 80]
[1]; [19]
  EC50: 3.18 µM
[1]; [20]
  EC50: 1.97 µM
[1]; [21]
  EC50: 5.6 µM
[1]; [22]
  EC50: 1.41 µM
[2]
  EC50: 4500 nM
[3]
  EC50: 2190 nM
[4]
  EC50: 3220 nM
[5]
  EC50: 4060 nM
[6]
  EC50: 6640 nM
[7]
  EC50: 4620 nM
[8]
  EC50: 3090 nM
[9]
  EC50: 4030 nM
[10]
  EC50: 4070 nM
[11]; [23]
  EC50: 2.11 µM
[11]; [24]
  EC50: 0.879 µM
[11]; [25]
  EC50: 2.45 µM
[11]; [26]
  EC50: 2.27 µM
[11]; [27]
  EC50: 3.25 µM
[11]; [28]
  EC50: 1.19 µM
[11]; [29]
  EC50: 4.05 µM
[11]; [30]
  EC50: 0.731 µM
[11]; [31]
  EC50: 3.05 µM
[11]; [32]
  EC50: 1.6 µM
[11]; [33]
  EC50: 3.61 µM
[11]; [34]
  EC50: > 10 µM
[11]; [35]
  EC50: 2.8 µM
[12]
  EC50: 8.9 nM
[13]; [36]
  EC50: 2.81 µM
[13]; [37]
  EC50: 5.46 µM
[13]; [38]
  EC50: > 10 µM
[13]; [39]
  EC50: 1.59 µM
[14]; [40]
  EC50: 631 nM
[14]; [41]
  EC50: 3680 nM
[14]; [42]
  EC50: > 10000 nM
[15]; [43]
  EC50: 5780 nM
[15]; [44]
  EC50: 3980 nM
[15]; [45]
  EC50: 2850 nM
[15]; [46]
  EC50: 9120 nM
[15]; [47]
  EC50: 6020 nM
[16]; [48]
  EC50: 9580 nM
[16]; [49]
  EC50: 3720 nM
[16]; [50]
  EC50: 7500 nM
[16]; [51]
  EC50: 1110 nM
[16]; [52]
  EC50: 5110 nM
[16]; [53]
  EC50: 8910 nM
[16]; [54]
  EC50: 3510 nM
[17]; [55]
  EC50: 2.06 µM
[17]; [56]
  EC50: 6.22 µM
[17]; [57]
  EC50: 1.4 µM
[17]; [58]
  EC50: 7.22 µM
[17]; [59]
  EC50: 0.926 µM
[17]; [60]
  EC50: 1.51 µM
[18]
  EC50: 38.6 nM
